Experimental data published in PubChem BioAssay AID1963825 (Molecular Pharmacology Branch, DTP, NCI, 2024).

Experiment: Anticancer human tumor 997537-175-T-J1-PDC patient-derived colon adenocarcinoma cell line growth inhibition [POLQ]
Conditions: 997537-175-T-J1-PDC complex spheroid viability, combination with POLQ inhibitors; for IC50: curve of first compound; for viability, T/C: stronger effect = lower value
Summary of the method: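 PDC + HUVEC + MSC complex spheroids; POLQ inhibitors ± partner drugs; top conc. at/near clinical Cmax, else 10 microM (SN-38 1 microM), half-log dilutions; 37 degrees C, 5% CO2.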

[1] = second compound 0.0316 µM, first compound 0.0316 µM
[2] = second compound 0.0316 µM, first compound 0.1 µM
[3] = second compound 0.0316 µM, first compound 0.316 µM
[4] = second compound 0.0316 µM, first compound 1 µM
[5] = second compound 0.0316 µM, first compound 3.16 µM
[6] = second compound 0.0316 µM, first compound 10 µM
[7] = second compound 0.1 µM, first compound 0.0316 µM
[8] = second compound 0.1 µM, first compound 0.1 µM
[9] = second compound 0.1 µM, first compound 0.316 µM
[10] = second compound 0.1 µM, first compound 1 µM
[11] = second compound 0.1 µM, first compound 3.16 µM
[12] = second compound 0.1 µM, first compound 10 µM
[13] = second compound 0.316 µM, first compound 0.0316 µM
[14] = second compound 0.316 µM, first compound 0.1 µM
[15] = second compound 0.316 µM, first compound 0.316 µM
[16] = second compound 0.316 µM, first compound 1 µM
[17] = second compound 0.316 µM, first compound 3.16 µM
[18] = second compound 0.316 µM, first compound 10 µM
[19] = second compound 1 µM, first compound 0.0316 µM
[20] = second compound 1 µM, first compound 0.1 µM
[21] = second compound 1 µM, first compound 0.316 µM
[22] = second compound 1 µM, first compound 1 µM
[23] = second compound 1 µM, first compound 3.16 µM
[24] = second compound 1 µM, first compound 10 µM
[25] = second compound 3.16 µM, first compound 0.0316 µM
[26] = second compound 3.16 µM, first compound 0.1 µM
[27] = second compound 3.16 µM, first compound 0.316 µM
[28] = second compound 3.16 µM, first compound 1 µM
[29] = second compound 3.16 µM, first compound 3.16 µM
[30] = second compound 3.16 µM, first compound 10 µM
[31] = second compound 10 µM, first compound 0.0316 µM
[32] = second compound 10 µM, first compound 0.1 µM
[33] = second compound 10 µM, first compound 0.316 µM
[34] = second compound 10 µM, first compound 1 µM
[35] = second compound 10 µM, first compound 3.16 µM
[36] = second compound 10 µM, first compound 10 µM
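Also: luminescence signal used as a surrogate for viable cells; spheroids exposed to drugs for seven days before readout.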

## CCc1cc2c(N3CCc4c(cc(Cn5ccnc5)cc4-c4cn(C)nc4C(F)(F)F)C3=O)cc(C)nc2c(OC)n1 + COC1C(OC(N)=O)C(O)C(Oc2ccc3c(O)c(NC(=O)c4ccc(O)c(CC=C(C)C)c4)c(=O)oc3c2C)OC1(C)C
Second compound 0.0316 µM
  IC50: > 10 µM
Second compound 0.1 µM
  IC50: 6.36 µM
Second compound 0.316 µM
  IC50: > 10 µM
Second compound 1 µM
  IC50: > 10 µM
Second compound 3.16 µM
  IC50: > 10 µM
Second compound 10 µM
  IC50: > 10 µM
[1]
  viability, T/C: 95.1%
[2]
  viability, T/C: 123%
[3]
  viability, T/C: 88.9%
[4]
  viability, T/C: 95.2%
[5]
  viability, T/C: 69.1%
[6]
  viability, T/C: 55.2%
[7]
  viability, T/C: 106%
[8]
  viability, T/C: 93.3%
[9]
  viability, T/C: 75.1%
[10]
  viability, T/C: 68.8%
[11]
  viability, T/C: 70%
[12]
  viability, T/C: 39.1%
[13]
  viability, T/C: 110%
[14]
  viability, T/C: 107%
[15]
  viability, T/C: 93.5%
[16]
  viability, T/C: 80.7%
[17]
  viability, T/C: 76.1%
[18]
  viability, T/C: 66.7%
[19]
  viability, T/C: 102%
[20]
  viability, T/C: 114%
[21]
  viability, T/C: 86.4%
[22]
  viability, T/C: 61.1%
[23]
  viability, T/C: 64.2%
[24]
  viability, T/C: 60.1%
[25]
  viability, T/C: 113%
[26]
  viability, T/C: 104%
[27]
  viability, T/C: 100%
[28]
  viability, T/C: 68.6%
[29]
  viability, T/C: 49.8%
[30]
  viability, T/C: 65.6%
[31]
  viability, T/C: 92.1%
[32]
  viability, T/C: 88.7%
[33]
  viability, T/C: 74.3%
[34]
  viability, T/C: 66.9%
[35]
  viability, T/C: 54.5%
[36]
  viability, T/C: 59.8%

## COc1cc2cc(C(=O)CCC(=O)O)sc2cc1OC + COC1C(OC(N)=O)C(O)C(Oc2ccc3c(O)c(NC(=O)c4ccc(O)c(CC=C(C)C)c4)c(=O)oc3c2C)OC1(C)C
Second compound 0.0316 µM
  IC50: > 10 µM
Second compound 0.1 µM
  IC50: > 10 µM
Second compound 0.316 µM
  IC50: > 10 µM
Second compound 1 µM
  IC50: > 10 µM
Second compound 3.16 µM
  IC50: > 10 µM
Second compound 10 µM
  IC50: > 10 µM
[1]
  viability, T/C: 95.1%
[2]
  viability, T/C: 98.6%
[3]
  viability, T/C: 88.1%
[4]
  viability, T/C: 92.5%
[5]
  viability, T/C: 89.7%
[6]
  viability, T/C: 80.3%
[7]
  viability, T/C: 94.3%
[8]
  viability, T/C: 96.3%
[9]
  viability, T/C: 87.5%
[10]
  viability, T/C: 93.5%
[11]
  viability, T/C: 99.1%
[12]
  viability, T/C: 92.2%
[13]
  viability, T/C: 101%
[14]
  viability, T/C: 108%
[15]
  viability, T/C: 99.9%
[16]
  viability, T/C: 96.2%
[17]
  viability, T/C: 86.2%
[18]
  viability, T/C: 91.8%
[19]
  viability, T/C: 100%
[20]
  viability, T/C: 98.4%
[21]
  viability, T/C: 104%
[22]
  viability, T/C: 93.5%
[23]
  viability, T/C: 100%
[24]
  viability, T/C: 90.4%
[25]
  viability, T/C: 96.2%
[26]
  viability, T/C: 101%
[27]
  viability, T/C: 96.5%
[28]
  viability, T/C: 101%
[29]
  viability, T/C: 97.3%
[30]
  viability, T/C: 105%
[31]
  viability, T/C: 97.2%
[32]
  viability, T/C: 89.6%
[33]
  viability, T/C: 95.5%
[34]
  viability, T/C: 104%
[35]
  viability, T/C: 94.8%
[36]
  viability, T/C: 84.1%
